Data as given in publication PMC8465942, “Cyano- and Ketone-Containing Selenoesters as Multi-Target Compounds against Resistant Cancers” (Cancers, 2021).
Where two headings read alike, the source gives them in different places. Marks after values point to notes of the source that are not given here. Each block holds one molecule with its values, some of them ahead of it.

What was measured:
[1] = test system: Colo 320/MDR-LRP human colonic adenocarcinoma cell line; assay: Cytotoxicity (MTT) on resistant Colo 320 cells; assay type: cell-based; conditions: for IC50: Homo sapiens, COLO 320, 24 h, MTT, read-out: Colo 320 (IC50 µM) Mean; for SI MRC-5/Colo 320: ratio IC50 non-tumour cells / IC50 cancer cells
Excerpt: (§1) Three cell lines have been used in this study: the doxorubicin-sensitive Colo 205 (CCL-222, ATCC, Manassas, VA, USA) human colonic adenocarcinoma cell line; the multidrug resistant Colo 320/MDR-LRP expressing P-gp (MDR1)-LRP (CCL-220.1, ATCC) human colonic adenocarcinoma cell line; and the MRC-5 human embryonal lung fibroblast cell line (CCL-171, ATCC). The colon adenocarcinoma cell lines were purchased from LGC Promochem (Teddington, UK), and the MRC-5 cell line was purchased from Sigma-Aldrich (Merck KGaA, Darmstadt, Germany). Their culture conditions are as follows: Colo 205 (CCL-222, ATCC) and Colo 320/MDR-LRP expressing P-gp (MDR1)-LRP (CCL-220.1, ATCC) human colon adenocarcinoma cell lines were cultured in RPMI 1640 medium, supplemented with 10% FBS, 2 mM L-glutamine, 1 mM Na-pyruvate, and […]. The cell lines were incubated at 37 °C, 5% CO2, and 95% air atmosphere. The semi-adherent human colon cancer cells were detached with a Trypsin-Versene (EDTA) solution for 5 min at 37 °C. MRC-5 human embryonal lung fibroblast cells were cultured in EMEM containing 4.5 g/L of glucose and supplemented with a non-essential amino acid mixture, a selection of vitamins, and 10% FBS. The cell lines were incubated at 37 °C, 5% CO2, and 95% air atmosphere.
(§2) The effects of increasing concentrations of the compounds on cell growth were tested in 96-well flat-bottomed microtiter plates. Moreover, 10^4 of human colonic adenocarcinoma cells in 100 μL of the medium (RPMI-1640) were added to each well, except for the medium control wells. The adherent human embryonic lung fibroblast cell line was seeded in the EMEM medium for 4 h before the assay. The two-fold serial dilutions of the compounds were made in a separate plate (0.19–100 μM), and then transferred to the plates containing the adherent corresponding cell line. Culture plates were incubated at 37 °C for 24 h. At the end of the incubation period, 20 μL of MTT (thiazolyl blue tetrazolium bromide) solution (from a 5 mg/mL stock solution) were added to each well. After incubation at 37 °C for 4 h, 100 μL of sodium dodecyl sulfate (SDS) solution (10% SDS in 0.01 M HCl) was added to each well, and the plates were further incubated at 37 °C overnight. Cell growth was determined by measuring the optical density (OD) at 540 nm (ref. 630 nm) with a Multiscan EX ELISA reader (Thermo Labsystems, Cheshire, WA, USA). Inhibition of cell growth was expressed as IC50 values, defined as the inhibitory dose that reduces the growth of the cells exposed to the tested compounds by 50%. IC50 values and the SD of triplicate experiments were calculated by using GraphPad Prism software version 5.00 for Windows, with a non-linear regression curve fit (GraphPad Software, San Diego, CA, USA; www.graphpad.com, accessed on 12 July 2021). Doxorubicin (from a 2 mg/mL stock solution, Teva Pharmaceuticals) was used as a positive control.
(§3) The selectivity indexes (SI) were calculated as the ratio of the IC50 value in the non-tumour cells and the IC50 in the cancer cell lines. The compound’s activity towards cancer cells is considered as strongly selective if the selectivity index (SI) value is higher than 6, moderately selective if 3 < SI < 6, slightly selective if 1 < SI < 3, and non-selective if SI is lower than 1 [16].

[2] = test system: Colo 205 human colonic adenocarcinoma cell line; assay: Cytotoxicity (MTT) on sensitive Colo 205 cells; assay type: cell-based; conditions: for IC50: Homo sapiens, COLO 205, 24 h, MTT, read-out: Colo 205 (IC50 µM) Mean; for SI MRC-5/Colo 205: ratio IC50 non-tumour cells / IC50 cancer cells
Excerpt: as §1, §2, §3

[3] = Cytotoxicity (MTT) on normal MRC-5 fibroblasts; assay type: cell-based; conditions: human
Excerpt: as §1, §2

[4] = test system: MDR Colo 320 adenocarcinoma cells; assay: Apoptosis induction (Annexin V-FITC / propidium iodide); assay type: cell-based, human; conditions: 20 µM
Description: The assay was carried out using an Annexin V-FITC Apoptosis Detection Kit Cat. No. PF 032 from Calbiochem (EMD Biosciences. Inc. La Jolla. CA), according to the manufacturer's instructions. […] The cell suspension was distributed into 1 mL aliquots (1 × 10^6 cells) into a 24-well microplate and incubated overnight at 37 °C, with 5% CO2. On the following day, the medium was removed and a fresh medium was added to the cells. The cells were incubated in the presence of Se-compounds for 3 h at 37 °C. […] After a 3 h induction period, the culture medium was removed, the cells were washed with PBS, and a fresh medium was added to the cells. The 24-well plates were incubated overnight at 37 °C, with 5% CO2. After the incubation, the supernatant was collected in a microfuge tube and 200 μL of 0.25 trypsin (Trypsin-Versene) was added to the wells until the cells detached from the surfaces of the wells. The cells were centrifuged at 2000× g for 2 min at room temperature, the supernatant was removed, and the cells were re-suspended in fresh serum-free medium. After this procedure, apoptosis assay was carried out according to the rapid protocol of the kit using Annexin V-FITC and propidium iodide staining. […] The data were analysed by FlowJo^TM software (BD Biosciences, San Jose, NJ, USA).

B16 (skin melanoma) = assay: Cytotoxicity on B16 cells; assay type: cell-based, murine; conditions: Mus musculus
Description: (§4) The activity of selenoesters was tested on several cancer cell lines, including HepG2 (hepatocellular carcinoma, CCL-23TM, ATCC); HeLa (cervical adenocarcinoma, CCL-2TM, ATCC); B16 (skin melanoma, CCL-6322TM, ATCC); and a non-cancerous cell line, HDF (human dermal fibroblasts, Sigma-Aldrich). HepG2, HeLa, B16, and HDF cell lines were cultivated in EMEM medium supplemented with 10% FBS, 2 mM L-glutamine, and 1% penicillin-streptomycin mixture. The HaCaT cell line was cultivated in DMEM medium supplemented with 10% FBS and 1% penicillin-streptomycin mixture. All of the cells were cultivated in a CO2 incubator (5% CO2, 37 °C). Twice per week, the cell lines were passaged according to a standardized protocol with a trypsin-EDTA solution.
as §3

HaCaT cell line = assay: Toxicity on HaCaT cells (IC10 used as dose); assay type: cell-based; conditions: Homo sapiens, concentration inhibiting 10% of the population, highest non-toxic concentration, read-out: Dose IC10
Description: as §4, with “solution. […]” for “solution.”
Wound healing activity of selenoesters was evaluated as the ability of the cells to migrate and close the gap created on the monolayer of human keratinocytes (HaCaT cell line). The tested substances were applied in the highest possible non-toxic concentration (IC10, concentration inhibiting 10% of the population). In general, ketone-selenoesters were more toxic (except K4 and K1) than cyano-selenoesters (except N4); therefore, they were applied at lower doses (0.17–0.30 µM) when compared to cyanoselenoesters (0.36–0.64 µM). Compounds K1, K4, and N4 were applied at a concentration of 0.30, 0.46, and 0.20 µM, respectively. As could be seen in Table 8, all ketone-selenoesters stimulated wound healing more effectively in comparison to both untreated control (p < 0.0000005) and allantoin (p < 0.00005). […] Only samples N1, N2, N4, and N7 closed effectively the damaged wound in 24 h, with the gap closure around 70%.

[5] = test system: HepG2 (hepatocellular carcinoma); assay: Cytotoxicity on HepG2 cells; assay type: cell-based; conditions: Homo sapiens
Description: as §4, §3

[6] = test system: HeLa (cervical adenocarcinoma); assay: Cytotoxicity on HeLa cells; assay type: cell-based; conditions: Homo sapiens
Description: as §4, §3

[7] = test system: HepG2 (hepatocellular carcinoma); assay: Cytotoxicity on HepG2 cells; assay type: cell-based, human; conditions: ratio IC50 non-tumour cells / IC50 cancer cells
[8] = test system: HeLa (cervical adenocarcinoma); assay: Cytotoxicity on HeLa cells; assay type: cell-based, human; conditions: ratio IC50 non-tumour cells / IC50 cancer cells
[9] = test system: resistant Colo 320 colon adenocarcinoma cells expressing the ABCB1 transporter; assay: Checkerboard combination assay with doxorubicin; assay type: cell-based, human; conditions: starting conc. 10 µM
Description: A checkerboard microplate method was applied to study the effect of drug interactions between the selenocompounds and the chemotherapeutic drug doxorubicin on resistant Colo 320 colon adenocarcinoma cells expressing the ABCB1 transporter. Results were expressed in terms of the combination index (CI) values at 50% growth inhibition (ED50), which were determined by using CompuSyn software to plot 4 or 5 data points for each ratio.
To perform the experiment, the dilutions of doxorubicin were made in a horizontal direction in 100 µL, and the dilutions of the Se-compounds were made vertically in the microtiter plate in a volume of 50 µL. The cells were re-suspended in the culture medium and distributed into each well in 50 µL portions containing 6000 cells. The plates were incubated for 72 h at 37 °C in a CO2 incubator. The cell growth rate was determined after MTT staining. At the end of the incubation period, 20 μL of MTT solution was added to each well. After incubation at 37 °C for 4 h, 100 μL of SDS was added to each well and the plates were further incubated at 37 °C overnight. The optical density (OD) was measured at 540/630 nm with the Multiscan EX ELISA reader.

[10] = molecular target: ABCB1 (P-glycoprotein) in Colo 320 colonic adenocarcinoma cells (Homo sapiens, UniProt P08183); assay: ABCB1 inhibition, rhodamine 123 accumulation by flow cytometry; conditions: 0.2 µM
Description: The inhibition of the ABCB1 multidrug efflux pump ABCB1 by the tested compounds was evaluated using flow cytometry, measuring the retention of rhodamine 123 by ABCB1 (P-glycoprotein) in Colo 320 colonic adenocarcinoma cells. Briefly, the cell number of colonic adenocarcinoma cells were adjusted to 2 × 10^6 cells/mL, re-suspended in serum-free RPMI-1640 medium in the case of colonic adenocarcinoma cells, and distributed in 0.5 mL aliquots into Eppendorf centrifuge tubes. The tested compounds were added at different concentrations (0.2 and 2 µM; from 1 and 10 mM stock solutions, respectively), and the samples were incubated for 10 min at room temperature. Tariquidar was applied as the positive control (0.2 µM final concentration), and DMSO was used as the solvent control (at 2 v/v%). Next, 10 µL (5.2 µM final concentration) of the fluorochrome rhodamine 123 (Sigma, St. Louis, MO, USA) was added to the samples and the cells were incubated for 20 min at 37 °C. After the incubation period, the cells were washed twice and re-suspended in 0.5 mL PBS for analysis. The fluorescence of the gated cell population was measured with a Partec CyFlow® flow cytometer (Partec, Münster, Germany). The percentage of the mean fluorescence intensity was calculated for the treated MDR cells as compared with the untreated cells. The results were obtained from a representative flow cytometry experiment in which at least 20,000 individual cells of the overall population were evaluated for the rhodamine 123 retained inside the cells. The fluorescence activity ratio (FAR) was calculated based on the following equation, which relates the measured fluorescence values: FAR=Colo320treated / Colo320control/Colo205treated / Colo205control
The parameters evaluated from flow cytometry experiments were: Forward Scatter Count (FSC, provides information about cell size); Side Scatter Count (SSC, proportional to cell granularity or internal complexity); FL-1 (Mean fluorescence of the cells), and Fluorescence Activity Ratio (FAR), which was calculated by the equation given above.

ABCB1 (P-glycoprotein) in Colo 320 colonic adenocarcinoma cells, sequence (P08183 whole entry): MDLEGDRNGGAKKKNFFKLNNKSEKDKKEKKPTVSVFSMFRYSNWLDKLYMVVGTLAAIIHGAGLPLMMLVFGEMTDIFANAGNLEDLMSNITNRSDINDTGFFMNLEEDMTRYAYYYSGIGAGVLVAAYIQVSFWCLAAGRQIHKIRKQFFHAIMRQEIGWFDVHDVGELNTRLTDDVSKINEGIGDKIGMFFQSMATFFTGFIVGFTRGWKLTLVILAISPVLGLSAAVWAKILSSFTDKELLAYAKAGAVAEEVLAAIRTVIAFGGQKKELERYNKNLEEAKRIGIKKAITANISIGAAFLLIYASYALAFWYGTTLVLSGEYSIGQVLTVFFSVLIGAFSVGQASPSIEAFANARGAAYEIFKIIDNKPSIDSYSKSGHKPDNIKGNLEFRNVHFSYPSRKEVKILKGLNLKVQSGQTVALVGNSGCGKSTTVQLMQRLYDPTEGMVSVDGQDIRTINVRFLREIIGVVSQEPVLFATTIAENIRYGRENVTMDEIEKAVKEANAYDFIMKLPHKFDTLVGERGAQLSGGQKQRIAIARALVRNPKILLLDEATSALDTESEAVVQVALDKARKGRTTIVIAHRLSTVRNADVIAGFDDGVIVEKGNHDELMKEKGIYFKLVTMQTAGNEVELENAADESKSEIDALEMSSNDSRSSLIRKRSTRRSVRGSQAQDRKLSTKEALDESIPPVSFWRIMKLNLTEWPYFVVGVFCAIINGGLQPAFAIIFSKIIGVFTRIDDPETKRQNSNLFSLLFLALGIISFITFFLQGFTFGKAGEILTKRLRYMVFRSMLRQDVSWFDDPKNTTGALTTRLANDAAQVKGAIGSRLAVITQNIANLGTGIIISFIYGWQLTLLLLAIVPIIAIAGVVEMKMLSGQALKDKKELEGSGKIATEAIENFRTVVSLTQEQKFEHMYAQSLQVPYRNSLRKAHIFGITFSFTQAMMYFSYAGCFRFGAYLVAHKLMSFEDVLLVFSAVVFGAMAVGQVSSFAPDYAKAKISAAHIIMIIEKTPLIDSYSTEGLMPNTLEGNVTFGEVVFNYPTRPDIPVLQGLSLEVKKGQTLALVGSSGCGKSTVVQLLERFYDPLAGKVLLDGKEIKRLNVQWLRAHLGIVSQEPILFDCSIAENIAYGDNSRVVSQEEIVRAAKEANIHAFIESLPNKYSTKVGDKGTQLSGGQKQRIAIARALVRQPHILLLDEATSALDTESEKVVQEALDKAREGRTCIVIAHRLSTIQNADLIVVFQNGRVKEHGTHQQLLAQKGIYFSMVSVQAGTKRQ

SMILES: COc1cccc2c1C(=O)c1c(O)c3c(c(O)c1C2=O)C[C@@](O)(C(=O)CO)C[C@@H]3O[C@H]1C[C@H](N)[C@H](O)[C@H](C)O1 [Dox., doxorubicin, reference compound]
IC50 [1]: 7.61 µM | SI MRC-5/Colo 320 [1]: 0.36 | IC50 [2]: 3.46 µM | SI MRC-5/Colo 205 [2]: 0.79 | IC50 at 24 h ([3]; MRC-5 embryonal lung fibroblast cells, 24 h, MTT, read-out: MRC-5 (IC50 µM) Mean): 2.73 µM

SMILES: c1ccc2c(c1)Nc1c(ccc3ccccc13)S2 [M627, 12H-benzo(α)phenothiazine, reference compound]
Cell Death (%) Treated Sample-Untreated Sample ([4]; positive control): 0.00% | Early Apoptosis (%) Treated Sample-Untreated Sample ([4]; positive control): 13.3% | Late Apoptosis (%) Treated Sample-Untreated Sample ([4]; positive control): 36.1% | Total Apoptotic Events (Early + Late, %) ([4]; positive control): 49.4% | Apoptosis Quotient (%) ([4]; reference): 100%

SMILES: N#CC[Se]C(=O)c1cccc(C(F)(F)F)c1 [N5, Se-(Cyanomethyl) 3-(Trifluoromethyl)benzoselenoate]
IC50 (B16 (skin melanoma)): 1.4 µM | IC10 (HaCaT cell line): 0.6 µM | IC50 [1]: 5.22 µM | SI MRC-5/Colo 320 [1]: >6 * | IC50 [5]: 9.8 µM | IC50 [6]: 2.5 µM | SI MRC-5/HepG2 [7]: >6 * | SI MRC-5/HeLa [8]: >6 * | IC50 [2]: 2.1 µM | SI MRC-5/Colo 205 [2]: >6 * | IC50 at 24 h [3]: > 100 µM | Type of Interaction ([9]; ratio 1.2:1): Strong antagonism | Type of Interaction ([9]; ratio 2.4:1): Strong antagonism | Type of Interaction ([9]; ratio 4.8:1): Slight antagonism | Type of Interaction ([9]; ratio 9.6:1): Additive effect | Type of Interaction ([9]; ratio 19.2:1): Slight antagonism | Type of Interaction ([9]; ratio 38.4:1): Moderate antagonism

FSC (Forward Scatter Count) [10]: 1957 | SSC (Side Scatter Count) [10]: 1074 | FAR (fluorescence activity ratio) ([10]; rhodamine 123, FAR above 2 considered effective): 28.04
SMILES: COc1cc2c(cc1OC)CN(CCc1ccc(NC(=O)c3cc(OC)c(OC)cc3NC(=O)c3cnc4ccccc4c3)cc1)CC2 [Tariquidar, reference compound]
